The values below come from BindingDB's records for doi:10.1016/j.chembiol.2009.02.013 (Pfizer, 2009).

The test concerns the target T1, Fatty-acid amide hydrolase 1 [30-579] (Rattus norvegicus, UniProt P97612).
T1 construct: 30-579
T1 sequence (P97612 whole entry): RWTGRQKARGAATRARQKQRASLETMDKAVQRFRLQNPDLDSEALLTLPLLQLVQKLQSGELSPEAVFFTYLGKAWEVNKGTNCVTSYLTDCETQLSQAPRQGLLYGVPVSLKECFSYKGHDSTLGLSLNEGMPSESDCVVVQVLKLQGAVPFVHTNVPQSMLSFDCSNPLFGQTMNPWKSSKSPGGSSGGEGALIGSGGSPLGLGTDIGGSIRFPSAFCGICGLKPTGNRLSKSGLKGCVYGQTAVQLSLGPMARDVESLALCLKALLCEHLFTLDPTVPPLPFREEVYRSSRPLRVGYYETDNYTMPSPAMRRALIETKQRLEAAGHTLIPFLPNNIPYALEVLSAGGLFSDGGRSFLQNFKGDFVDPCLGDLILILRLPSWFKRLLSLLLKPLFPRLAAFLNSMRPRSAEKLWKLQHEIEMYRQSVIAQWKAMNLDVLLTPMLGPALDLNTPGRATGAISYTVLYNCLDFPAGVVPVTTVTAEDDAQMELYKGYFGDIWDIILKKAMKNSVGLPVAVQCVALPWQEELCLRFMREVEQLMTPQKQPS
Kind of test: Enzyme-coupled Assay. The source says:
Enzyme-coupled assay using oleamide as substrate where stoichiometic quantites of NAD are formed upon the generation of ammonia from oleamide by FAAH hydrolysis.

The Ki is the dissociation constant of the complex between target and ligand, obtained from inhibition or displacement.

Structures are written as SMILES.

`O=C(Nc1cccnc1)N1CCC(Cc2cccc(Oc3ccc(C(F)(F)F)cn3)c2)CC1` [PF-3845, 10]: the Ki was determined as 230 nM.
